# From patent US10959428B2, “Hematophagous arthropod repellent composition” (WOOJUNG BIO INC., priority 2017, dated 2021)
# How the values were obtained:
# [1] = system: adult Aedes aegypti; test: cage-in-arm test, complete protection time (CPT); assay type: in vivo; conditions: 4 mg
# Description: For determining the repellency of prepared samples against adults of Aedes aegypti and Aedes albopicus, a cage-in-arm test was carried out as a method for exposure to skin. Namely, on a back of the hand of a rubber glove, a hole with diameter of 5 cm was created, and, onto an exposed back of the testees, various samples prepared by dissolution in 100 μl of ethanol were applied, and then the skin test was carried out. The testees were healthy males between the ages of 21 and 40. The control group was treated with 100 μl of ethanol only. Female adults (5 to 8 day old) of Aedes aegypti or Aedes albopicus (250 to 300 mosquitoes) were added to a cage for growing adult mosquitoes (25×25×25 cm^3), and adapted to the indoor conditions for 12 to 24 hours before starting the test. When the upper arm of the control group is exposed for 1 minute and at least 6 mosquitoes sit on the upper arm or show a bloodsucking behavior, it was determined as sufficient biting pressure, and then the repellency test was carried out. […] The time period between the time point with initial treatment of a material and the time point at which 2 or more mosquitoes continuously sit on the treatment area or show the bloodsucking behavior was defined as complete protection time (CPT). Furthermore, for obtaining the repellency with regard to concentration, exposure was made for a constant time period regardless of the above and the repellency was calculated by using the following formula. Accordingly, the effect was compared among each test samples. All tests were carried out in triplicate. Repellency %=(Number of insects showing bloodsucking behavior in non-treatment group−Number of insects showing bloodsucking behavior in treatment group)/Number of insects showing bloodsucking behavior in non-treatment group)×100 <Tick Repellency>
# [2] = system: adult Aedes albopicus; test: cage-in-arm test, repellency and CPT; assay type: in vivo, Aedes albopictus; conditions: for CPT: 4 mg, adult Aedes albopicus
# Description: For determining the repellency of prepared samples against adults of Aedes aegypti and Aedes albopicus, a cage-in-arm test was carried out as a method for exposure to skin. Namely, on a back of the hand of a rubber glove, a hole with diameter of 5 cm was created, and, onto an exposed back of the testees, various samples prepared by dissolution in 100 μl of ethanol were applied, and then the skin test was carried out. The testees were healthy males between the ages of 21 and 40. The control group was treated with 100 μl of ethanol only. Female adults (5 to 8 day old) of Aedes aegypti or Aedes albopicus (250 to 300 mosquitoes) were added to a cage for growing adult mosquitoes (25×25×25 cm^3), and adapted to the indoor conditions for 12 to 24 hours before starting the test. When the upper arm of the control group is exposed for 1 minute and at least 6 mosquitoes sit on the upper arm or show a bloodsucking behavior, it was determined as sufficient biting pressure, and then the repellency test was carried out. With an interval of 30 minutes, by exposing the upper arm, which has been treated with the above composition, for 3 minutes, and, when the adult mosquito sits on the arm for 2 seconds or longer or at least two mosquitoes showing the behavior of mouth injection to skin or direct bloodsucking are found from consecutive tests, the test was stopped. The time period between the time point with initial treatment of a material and the time point at which 2 or more mosquitoes continuously sit on the treatment area or show the bloodsucking behavior was defined as complete protection time (CPT). Furthermore, for obtaining the repellency with regard to concentration, exposure was made for a constant time period regardless of the above and the repellency was calculated by using the following formula. Accordingly, the effect was compared among each test samples. All tests were carried out in triplicate. Repellency %=(Number of insects showing bloodsucking behavior in non-treatment group−Number of insects showing bloodsucking behavior in treatment group)/Number of insects showing bloodsucking behavior in non-treatment group)×100 <Tick Repellency>
# For reference, comparison of the mosquito repellency was made by using clove oil as a natural positive control group and DEET as a synthetic positive control group.
# To determine the repellency of plant essential oil alone against adult Aedes albopicus and nymphs of Haemaphysalis longicornis, the cage-in-arm test and finger-tip method were carried out, in the same manner as Examples 1-2 and 1-3, with each of 16 kinds of plant essential oil of Table 4.
compound,measurement,setting,value
"COc1cc(C=O)ccc1OCc1ccccc1 [4-Benzyloxy-3-methoxybenzaldehyde, 4-benzyloxy-3-methoxybenzaldehyde]",CPT,[1]; adult Aedes aegypti,22 min
COc1cc(CN)ccc1O.Cl [4-hydroxy-3-methoxybenzylamine hydrochloride],CPT,[1]; adult Aedes aegypti,10 min
"CCN(CC)C(=O)c1cccc(C)c1 [DEET, N,N-diethyl-m-toluamide]","Repellency (mean ± SE, %)","[2]; 0.03 mg/cm^2, 10 minutes",77 ± 5.8%
same,"Repellency (mean ± SE, %)","[2]; 0.03 mg/cm^2, 30 minutes",67 ± 3.3%
same,"Repellency (mean ± SE, %)","[2]; 0.03 mg/cm^2, 60 minutes",69 ± 6.9%
same,"Repellency (mean ± SE, %)","[2]; 0.03 mg/cm^2, 90 minutes",19 ± 5.2%
same,"Repellency (mean ± SE, %)","[2]; 0.10 mg/cm^2, 10 minutes",100 ± 0%
same,"Repellency (mean ± SE, %)","[2]; 0.10 mg/cm^2, 30 minutes",96 ± 2.6%
same,"Repellency (mean ± SE, %)","[2]; 0.10 mg/cm^2, 60 minutes",86 ± 4.2%
same,"Repellency (mean ± SE, %)","[2]; 0.10 mg/cm^2, 90 minutes",83 ± 4.3%
same,"Repellency (mean ± SE, %)","[2]; 0.10 mg/cm^2, 120 minutes",82 ± 9.5%
same,"Repellency (mean ± SE, %)","[2]; 0.10 mg/cm^2, 150 minutes",57 ± 5.2%
same,"Repellency (mean ± SE, %)","[2]; 0.10 mg/cm^2, 180 minutes",27 ± 3.8%
same,"Repellency (mean ± SE, %)","[2]; 0.20 mg/cm^2, 10 minutes",100 ± 0%
same,"Repellency (mean ± SE, %)","[2]; 0.20 mg/cm^2, 30 minutes",100 ± 0%
same,"Repellency (mean ± SE, %)","[2]; 0.20 mg/cm^2, 60 minutes",100 ± 0%
same,"Repellency (mean ± SE, %)","[2]; 0.20 mg/cm^2, 90 minutes",100 ± 0%
same,"Repellency (mean ± SE, %)","[2]; 0.20 mg/cm^2, 120 minutes",95 ± 3.3%
same,"Repellency (mean ± SE, %)","[2]; 0.20 mg/cm^2, 150 minutes",96 ± 1.2%
same,"Repellency (mean ± SE, %)","[2]; 0.20 mg/cm^2, 180 minutes",85 ± 3.0%
same,"Repellency (mean ± SE, %)","[2]; 0.25 mg/cm^2, 10 minutes",100 ± 0%
same,"Repellency (mean ± SE, %)","[2]; 0.25 mg/cm^2, 30 minutes",100 ± 0%
same,"Repellency (mean ± SE, %)","[2]; 0.25 mg/cm^2, 60 minutes",100 ± 0%
same,"Repellency (mean ± SE, %)","[2]; 0.25 mg/cm^2, 90 minutes",100 ± 0%
same,"Repellency (mean ± SE, %)","[2]; 0.25 mg/cm^2, 120 minutes",100 ± 0%
same,"Repellency (mean ± SE, %)","[2]; 0.25 mg/cm^2, 150 minutes",100 ± 0%
same,"Repellency (mean ± SE, %)","[2]; 0.25 mg/cm^2, 180 minutes",84 ± 4.3%
same,CPT,[2],90 min
same,CPT,[1]; adult Aedes aegypti,90 min
same,CPT,[1]; adult Aedes aegypti (Table 6),90 min
"C=CCc1ccc(O)c(OC)c1 [Eugenol (clove), Eugenol]",CPT,[2],10 min
"C=CCc1ccc(O)c(OC)c1 [Eugenol, eugenol, reference compound]",CPT,[1]; adult Aedes aegypti,10 min
COc1cc(C=O)ccc1O [Vanillin],CPT,[1]; adult Aedes aegypti,30 min
"COc1cc(CCC(C)=O)ccc1O [Vanillyl acetone, vanillyl acetone]",CPT,[1]; adult Aedes aegypti,10 min
COc1cc(C=O)ccc1OC(=O)OC(C)(C)C [tert-butyl 4-formyl-2-methoxyphenyl carbonate],CPT,[1]; adult Aedes aegypti,10 min
vanillin isobutyrate,CPT,[1]; adult Aedes aegypti,45 min
